Measurements reported in US8313740B2 (priority 2006, dated 2012).

Test system: MC38-HER-2 cells
Conditions: mouse, in vivo

CC(=O)O[C@@]12CO[C@@H]1C[C@H](O)[C@@]1(C)C(=O)[C@H](O)C3=C(C)[C@@H](OC(=O)[C@H](O)[C@@H](NC(=O)OC(C)(C)C)c4ccccc4)C[C@@](O)([C@@H](OC(=O)c4ccccc4)[C@H]21)C3(C)C [Docetaxel, docetaxel]
tumor growth, subset A: modest and transient delay of tumor growth | tumor growth, subset B: had no effect on tumor growth | tumor growth, subset C: had no effect on tumor growth
